Earlier results, collected in patent publication US20250066504A1, “USE OF OREGOVOMAB AND PARP INHIBITORS FOR TREATMENT OF OVARIAN CANCER” (CANARIABIO INC., priority 2022, published 2025).
Several values for one entry are separate records, joined by “and”; a condition that tells them apart may be missing. Identical values can stand only once. Like-named read-outs stand apart in the source and are kept apart here.

How the values were obtained:
[1] = not given; remark: listed apart in the source
[2] = test system: patient-derived ovarian and breast cancer xenograft; details: in vivo
[3] = test system: platinum-sensitive, recurrent ovarian cancer
BRCA1-mutant xenograft = details: dosed orally
[4] = test system: patient-derived Ewing sarcoma; details: mouse, in vivo
[5] = test system: BRCA1-mutant breast cancer (MDA-MB-436)
[6] = test system: BRCA2-mutant pancreatic cancer (CAPAN-1)
[7] = 300 mg dose
[8] = in vivo
P-glycoprotein (P-gp) = P-glycoprotein (P-gp) (Homo sapiens, UniProt P08183)
Chain of P-glycoprotein (P-gp) (P08183 whole entry): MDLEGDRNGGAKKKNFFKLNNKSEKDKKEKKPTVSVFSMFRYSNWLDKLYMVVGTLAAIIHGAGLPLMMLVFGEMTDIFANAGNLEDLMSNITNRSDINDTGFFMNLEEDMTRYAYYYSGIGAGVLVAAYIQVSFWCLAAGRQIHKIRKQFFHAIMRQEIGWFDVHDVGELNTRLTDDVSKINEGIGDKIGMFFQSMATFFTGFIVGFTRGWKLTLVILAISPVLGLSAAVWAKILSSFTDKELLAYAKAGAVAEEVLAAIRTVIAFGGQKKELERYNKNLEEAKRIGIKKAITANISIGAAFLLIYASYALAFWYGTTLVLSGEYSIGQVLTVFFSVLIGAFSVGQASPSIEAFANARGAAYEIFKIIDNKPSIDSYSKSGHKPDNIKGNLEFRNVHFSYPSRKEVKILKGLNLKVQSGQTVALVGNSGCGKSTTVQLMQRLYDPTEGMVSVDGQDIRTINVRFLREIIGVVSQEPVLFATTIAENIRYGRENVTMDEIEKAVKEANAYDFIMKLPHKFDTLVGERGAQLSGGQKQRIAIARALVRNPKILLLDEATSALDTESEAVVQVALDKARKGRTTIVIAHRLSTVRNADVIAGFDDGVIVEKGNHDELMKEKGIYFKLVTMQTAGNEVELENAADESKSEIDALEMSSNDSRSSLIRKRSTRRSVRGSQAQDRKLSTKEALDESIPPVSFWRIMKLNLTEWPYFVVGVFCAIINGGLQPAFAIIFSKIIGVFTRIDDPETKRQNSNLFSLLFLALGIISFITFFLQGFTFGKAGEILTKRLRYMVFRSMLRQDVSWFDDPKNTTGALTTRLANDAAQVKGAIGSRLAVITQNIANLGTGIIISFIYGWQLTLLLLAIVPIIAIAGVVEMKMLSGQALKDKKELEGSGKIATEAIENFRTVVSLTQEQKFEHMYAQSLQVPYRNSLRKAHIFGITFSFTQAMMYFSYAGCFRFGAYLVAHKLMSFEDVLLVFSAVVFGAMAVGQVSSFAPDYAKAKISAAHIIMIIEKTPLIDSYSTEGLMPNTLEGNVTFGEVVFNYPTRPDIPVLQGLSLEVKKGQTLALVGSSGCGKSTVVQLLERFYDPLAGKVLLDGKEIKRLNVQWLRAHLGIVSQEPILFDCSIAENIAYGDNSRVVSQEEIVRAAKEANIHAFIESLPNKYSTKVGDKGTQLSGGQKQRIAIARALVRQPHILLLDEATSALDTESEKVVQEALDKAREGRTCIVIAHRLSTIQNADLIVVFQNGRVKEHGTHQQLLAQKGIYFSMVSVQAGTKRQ

[9] = for grade 3/4 thrombocytopenia rate in the first 30 days: classification tree model
[10] = test system: platinum-sensitive disease; details: added to gemcitabine and carboplatin
[11] = test system: platinum-sensitive recurrent ovarian cancer; details: added to standard chemotherapy, followed by maintenance until progression
[12] = test system: platinum resistant disease
[13] = human, in vivo
[14] = test system: advanced epithelial ovarian, adnexal, or primary peritoneal cancer, Stage III and Stage IV; details: K-M method
[15] = 100 times the estimated human dose equivalent (2 mg/60 kg body weight)
[16] = test system: normal human organs and tissues
[17] = test system: immune suppressive malignancy; details: immune initiation alone
[18] = test system: adenocarcinomas expressing the CA125 antigen
[19] = normal rabbits
[20] = 100 times the estimated human dose equivalent (2 mg/60 kg body weight); remark: listed apart in the source
CA-125-expressing tumors = details: mouse, in vivo
[21] = human, in vivo; remark: listed apart in the source
tumor = details: tumor-bearing mice
[22] = normal rats
[23] = HRDpos (Within non-gBRCAmut Cohort)
[24] = Non-gBRCAmut Cohort (Regardless of HRD Status)
[25] = lower baseline platelets (<180×10^9/L)

Molecule: NC(=O)c1cccc2cn(-c3ccc([C@@H]4CCCNC4)cc3)nc12 [Niraparib]
- correlation between exposure level (plasma concentration) and QTc changes (ΔQTcF) (in vivo): no correlation
- clinically significant abnormal ECG changes, including QTc interval prolongation, attributed to niraparib (n=26): no reports
- QT interval (therapeutic dose): did not prolong
- incidence of MDS/AML ([1]; 5 of 367): 1.4%
- anemia (all grades) ([1]; human, in vivo): 49%
- constipation (all grades) ([1]; human, in vivo): 40%
- decreased platelet count (all grades) ([1]; human, in vivo): 20%
- fatigue (all grades) ([1]; human, in vivo): 46%
- nausea (all grades) ([1]; human, in vivo): 74%
- neutropenia (all grades) ([1]; human, in vivo): 18%
- on-treatment deaths ([1]; human, in vivo): no on-treatment deaths
- subjects with at least 1 treatment-emergent adverse event (TEAE) ([1]; human, in vivo): All 367
- thrombocytopenia (all grades) ([1]; human, in vivo): 46%
- vomiting (all grades) ([1]; human, in vivo): 34%
- TEAEs leading to dose reduction ([1]; overall safety population): 69%
- TEAEs leading to treatment discontinuation ([1]; overall safety population): 15%
- TEAEs leading to treatment interruption ([1]; overall safety population): 67%
- incidence of Grade 3 or 4 TEAEs ([1]; overall safety population): 74%
- incidence of serious adverse events (SAEs) ([1]; overall safety population): 30%
- response in patient-derived xenograft models [2]: demonstrated response in both BRCAmut and BRCA wild-type tumors
- ORR (ovarian cancer; 98 subjects in the HRD-positive cohort, RECIST v1.1, 300 mg once daily): 24%
- Estimated median DOR (ovarian cancer; HRD-positive cohort): 8.3 months
- new safety signals (ovarian cancer; in vivo): No new safety signals
- subjects achieving an overall response (ovarian cancer; primary efficacy population (13 of 47)): 28%
- ORR (ovarian cancer; tBRCAm ovarian cancer, platinum-refractory disease (3/16)): 19%
- ORR (ovarian cancer; tBRCAm ovarian cancer, platinum-resistant disease (6/21)): 29%
- ORR (ovarian cancer; tBRCAm ovarian cancer, platinum-sensitive disease (7/18)): 39%
- HR (niraparib:placebo) [3, 23]: 0.38
- Median PFS [3, 23]: 12.9 months
- HR (niraparib:placebo) [3, 24]: 0.45
- Median PFS [3, 24]: 9.3 months
- Median PFS ([3]; gBRCAmut Cohort, 300 mg QD): 21.0 months
- HR (niraparib:placebo) ([3]; gBRCAmut Cohort, stratified Cox proportional hazards model): 0.27
- efficacy at the reduced dose ([3]; retrospective analyses from NOVA): did not compromise efficacy
- HR ([3]; subjects with HRDneg tumors): 0.58
- Median PFS ([3]; subjects with HRDneg tumors): 6.9 months
- reduction in tumor weight compared with control (BRCA1-mutant xenograft): > 90%
- tumor response (BRCA1-mutant xenograft): tumor regression
- antitumor activity [4]: strong antitumor activity
- antitumor activity [5]: strong antitumor activity
- antitumor activity [6]: strong antitumor activity
- bone marrow suppression (neutropenia, thrombocytopenia, and anemia), subjects [7]: 20-40%
- hypertension/hypertensive crisis, subjects ([7]; treatment for up to two years): 9%
- effect of food on absorption [8]: does not significantly affect
- substrate for P-gp (P-glycoprotein (P-gp)): relatively poor substrate
- synthetic lethality (cells with HRD; cells with HRD): induce synthetic lethality
- effect on normal DNA repair mechanisms (cells with HRD; pre-clinical models): inhibit normal DNA repair mechanisms
- grade 3/4 thrombocytopenia rate in the first 30 days ([9]; baseline body weight <77 kg or baseline platelet count <150,000 μL): approximately 30%
- grade 3/4 thrombocytopenia rate in the first 30 days ([9]; baseline body weight <77 kg or baseline platelet count <150,000 μL, listed as niraparib): 35.4% and ~30%
- incidence of grade 3 or 4 thrombocytopenia in the first 30 days ([9]; baseline body weight ≥77 kg): 14%
- incidence of grade 3 or 4 thrombocytopenia in the first 30 days ([9]; body weight <58 kg): 43%
- subjects with a dose reduction ([9]; body weight <58 kg): approximately 80%
- grade 3/4 thrombocytopenia rate in the first 30 days ([9]; body weight >77 kg and platelet count >150,000 μL): 11.5%
- treatment discontinuations ([9]; highest quartile (≥77 kg)): 10%
- frequency of thrombocytopenia Grade ≥1 [9, 25]: 76%
- frequency of thrombocytopenia Grade ≥3 [9, 25]: 45%
- treatment discontinuations ([9]; lower body weight (<58 kg quartile)): 24%
- subjects with a dose reduction ([9]; weight greater than or equal to 77 kg): 59%

Molecule: bevacizumab
- OS [10]: no difference in OS
- PFS [10]: improved PFS
- median overall survival [11]: improved the median overall survival
- PFS ([12]; added to pegylated liposomal doxorubicin, weekly paclitaxel, or topotecan): improved PFS
- OS ([12]; added to single agent chemotherapy): not OS

Molecule: O=C(c1cc(Cc2n[nH]c(=O)c3ccccc23)ccc1F)N1CCN(C(=O)C2CC2)CC1 [olaparib]
- myelodysplastic syndrome (MDS) and acute myeloid leukemia (AML) [13]: have been observed

Molecule: paclitaxel/carboplatin
- OS (median) [14]: 43.2 months
- PFS (median) [14]: 12.2 months
- time to clinical progression (TTCP) (median) [14]: 13.6 months

Molecule: Oregovomab
- affinity of binding to CA125 (CA125): 1.16e+10 M⁻¹
- binding force to cancer antigen 125 (CA-125) (CA125; during blood circulation): less than nano units
- acute toxicity [15]: lack of significant acute toxicity
- cross-reactivity with selected normal human organs and tissues [16]: does not show any significant cross-reactivity
- effect on the clinical course of disease [17]: insufficient to alter the clinical course of disease
- binding to adenocarcinomas expressing the CA125 antigen [18]: selective binding
- humoral response [19]: strong humoral response
- acute toxicity [20]: lack of significant acute toxicity
- ascites production (CA-125-expressing tumors): inhibited ascites production
- survival (CA-125-expressing tumors): long-term survival
- tumor size (CA-125-expressing tumors): reduced tumor size
- apparent terminal half-life (t1/2z) [21]: around 33 hours
- clearance on repeat administration [21]: accelerated
- dose of the radiotracer eliminated in the urine [21]: less than 50%
- mean residence time (MRT) [21]: about 45 hours
- plasma clearance [21]: around 110 mL/minute
- cellular responses (tumor): evident
- humoral response (tumor): strong humoral response
- survival (tumor; compared to controls): increase in survival
- tumor size (tumor; compared to controls): decrease in tumor size
- humoral response [22]: strong humoral response
